According to US8119624B2, “Fused phenyl amido heterocyclic compounds” (Pfizer Inc., priority 2006, dated 2012):
pEC50: −log10 of the molar value. Where two headings read alike, the source gives them in different places.

Biological target: T1, Full-length glucokinase (beta cell isoform) (Homo sapiens, UniProt P35557)
T1 construct: Full-length glucokinase (beta cell isoform) was His-tagged at N-terminus; His tag (N); made in house
T1 sequence (P35557 1-465): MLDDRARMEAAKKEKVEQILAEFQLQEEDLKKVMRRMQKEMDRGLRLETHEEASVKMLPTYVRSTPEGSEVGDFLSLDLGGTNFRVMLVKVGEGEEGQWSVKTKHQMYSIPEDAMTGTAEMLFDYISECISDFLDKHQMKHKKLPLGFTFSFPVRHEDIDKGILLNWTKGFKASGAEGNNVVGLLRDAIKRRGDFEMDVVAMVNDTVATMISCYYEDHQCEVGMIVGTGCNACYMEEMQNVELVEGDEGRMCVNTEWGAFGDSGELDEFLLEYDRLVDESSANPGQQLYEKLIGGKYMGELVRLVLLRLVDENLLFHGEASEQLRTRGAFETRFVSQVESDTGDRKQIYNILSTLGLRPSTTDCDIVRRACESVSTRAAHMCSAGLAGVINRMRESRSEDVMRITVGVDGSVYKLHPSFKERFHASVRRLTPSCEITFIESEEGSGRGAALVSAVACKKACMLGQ
Assay: Glucokinase biochemical assay (PK/LDH-coupled, NADH depletion at 340 nm): % activation, EC50, % max activation
Details: 5 mM glucose; for activation at 10 µM: read-out: % Activation at 10 uM; for pEC50: read-out: EC50; for Emax / % Max Activation: fitted maximum activation; for Emax: read-out: % Max Activation
Method in brief: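 Activation expressed as (Va/Vo−1)×100, where initial rates with and without compound come from NADH depletion at 340 nm over 200–900 s. Enzyme is His-tagged human beta-cell GK, full length, run at room temperature in HEPES buffer with 1 mM ATP and 5 mM glucose. DMSO 1%.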

[1] = 10 uM compound, % Activation=(Va/Vo−1)×100
[2] = compound at 10 uM, 1 mM ATP, room temperature

Compound | activation at 10 µM [1] [%] | pEC50 (GK activation) | Emax [%] | further results
Cc1ccc(NC(=O)c2cc(Oc3ccc(S(C)(=O)=O)cc3)c3c(c2)C(=O)N(CC(C)C)C3)nc1 [Example 381, 2-Isobutyl-N-(5-methylpyridin-2-yl)-7-(4-(methylsulfonyl)-phenoxy)-3-oxoisoindoline-5-carboxamide] |  |  |  | pEC50 (1 mM ATP, room temperature): 5.52; activation at 10 µM [2]: 81%; Emax (1 mM ATP): 132%
Cn1ccc(NC(=O)c2cc(Oc3ccc(CO)cc3F)c3c(c2)OC(C)(C)C3)n1 [Example 40, 4-(2-Fluoro-4-hydroxymethyl-phenoxy)-2,2-dimethyl-2,3-dihydro-benzofuran-6-carboxylic acid(1-methyl-1H-pyrazol-3-yl)-amide] |  | 5.44 |  | % Activation at 10 uM [1]: 109%; % Max Activation: 150%
Cc1ccc(NC(=O)c2cc(Oc3ccc(S(=O)(=O)N(C)C)cc3)c3c(c2)OC(C)(C)C3)nc1 [Example 128, 4-(4-Dimethylsulfamoyl-phenoxy)-2,2-dimethyl-2,3-dihydro-benzofuran-6-carboxylic acid (5-methyl-pyridin-2-yl)-amide] | 135 | 7.42 | 112 | 
Cc1nccnc1C(C)Oc1cc(C(=O)Nc2ccn(C)n2)cc2c1CC(C)(C)O2 (stereo not shown) [Example 83, 2,2-Dimethyl-4-[1-(3-methyl-pyrazin-2-yl)-ethoxy]-2,3-dihydro-benzofuran-6-carboxylic acid (1-methyl-1H-pyrazol-3-yl)-amide] | 78.3 | 5.09 | 148 | 
Cc1ccc(NC(=O)c2cc(Oc3ccc(S(=O)(=O)C4CC4)c(F)c3)c3c(c2)OC(C)(CO)C3)nc1 (single isomer, unassigned; (-)) [Example 402, (−)-4-(4-Cyclopropanesulfonyl-3-fluoro-phenoxy)-2-hydroxymethyl-2-methyl-2,3-dihydro-benzofuran-6-carboxylic acid(5-methyl-pyridin-2-yl)-amide] |  |  |  | % Activation at 10 uM [2]: 19.9%
CN(C)C(=O)c1ccc(Oc2cc(C(=O)Nc3ccncn3)cc3c2CC(C)(C)O3)cc1 [Example 156, 4-(4-Dimethylcarbamoyl-phenoxy)-2,2-dimethyl-2,3-dihydro-benzofuran-6-carboxylic acid pyrimidin-4-ylamide] | 52 | 6.34 | 49 | 
Cn1ccc(NC(=O)c2cc(Oc3ccc(S(=O)(=O)C4CC4)cc3)c3c(c2)OC(C)(C)C3)n1 [Example 129, 4-(4-Cyclopropanesulfonyl-phenoxy)-2,2-dimethyl-2,3-dihydro-benzofuran-6-carboxylic acid (1-methyl-1H-pyrazol-3-yl)-amide] | 185 | 7.05 | 160 | 
Cn1ccc(NC(=O)c2cc(Oc3ccc(C(=O)N4CC(F)(F)C4)cc3)c3c(c2)OC(C)(C)C3)n1 [Example 50, 4-[4-(3,3-Difluoro-azetidine-1-carbonyl)-phenoxy]-2,2-dimethyl-2,3-dihydro-benzofuran-6-carboxylic acid(1-methyl-1H-pyrazol-3-yl)-amide] | 146 | 6.25 | 149 | 
CCCc1noc(COc2cc(C(=O)Nc3ccn(C)n3)cc3c2CC(C)(C)O3)n1 [Example 100, 2,2-Dimethyl-4-(3-propyl-[1,2,4]oxadiazol-5-ylmethoxy)-2,3-dihydro-benzofuran-6-carboxylic acid (1-methyl-1H-pyrazol-3-yl)-amide] | 171 | 5.80 | 156 | 
Cn1ccc(NC(=O)c2cc(Oc3ccc(C(=O)N4CCCC4)c(F)c3)c3c(c2)OC(C)(C)C3)n1 [Example 56, 4-[3-Fluoro-4-(pyrrolidine-1-carbonyl)-phenoxy]-2,2-dimethyl-2,3-dihydro-benzofuran-6-carboxylic acid(1-methyl-1H-pyrazol-3-yl)-amide] | 107 | 7.29 | 108 | 
Cn1ccc(NC(=O)c2cc(OCc3ccccc3)c3c(c2)OC(C)(C)C3)n1 [Example 80, 4-Benzyloxy-2,2-dimethyl-2,3-dihydro-benzofuran-6-carboxylic acid (1-methyl-1H-pyrazol-3-yl)-amide] | 111 | 5.23 | 176 | 
Cn1ncc(NC(=O)c2cc(Oc3ccc(S(C)(=O)=O)c(Cl)c3)c3c(c2)OC(C)(C)C3)n1 [Example 118, 4-(3-Chloro-4-methanesulfonyl-phenoxy)-2,2-dimethyl-2,3-dihydro-benzofuran-6-carboxylic acid (2-methyl-2H-[1,2,3]triazol-4-yl)-amide] | 244 | 6.49 | 251 | 
Cc1ccc(NC(=O)c2cc(Oc3ccc(C(=O)N(C)C)cc3)c3c(c2)OC(C)(C)C3)nc1 [Example 150, 4-(4-Dimethylcarbamoyl-phenoxy)-2,2-dimethyl-2,3-dihydro-benzofuran-6-carboxylic acid (5-methyl-pyridin-2-yl)-amide] | 39.1 | 6.96 | 55 | 
CN(C)C1CN(C(=O)c2ccc(Oc3cc(C(=O)Nc4ccn(C)n4)cc4c3CC(C)(C)O4)c(F)c2)C1 [Example 44, 4-[4-(3-Dimethylamino-azetidine-1-carbonyl)-2-fluoro-phenoxy]-2,2-dimethyl-2,3-dihydro-benzofuran-6-carboxylic acid(1-methyl-1H-pyrazol-3-yl)-amide] | 137 | 6.24 | 146 | 
Cn1ccc(NC(=O)c2cc(OCc3ccccc3)c3c(c2)C(=O)N(C2CC2)C3)n1 [Example 377, 7-(Benzyloxy)-2-cyclopropyl-N-(1-methyl-1H-pyrazol-3-yl)-3-oxoisoindoline-5-carboxamide] |  |  |  | activation at 10 µM [2]: 25.6%
CN(C)C(=O)c1ccc(Oc2cc(C(=O)Nc3cnn(C)n3)cc3c2CC(C)(C)O3)cc1F [Example 142, 4-(4-Dimethylcarbamoyl-3-fluoro-phenoxy)-2,2-dimethyl-2,3-dihydro-benzofuran-6-carboxylic acid (2-methyl-2H-[1,2,3]triazol-4-yl)-amide] | 145 | 7.28 | 130 | 

Continued, in another order:

activation at 10 µM [1] [%] | pEC50 (GK activation) | Emax [%] | Compound | further results
81.4 | 6.00 | 91 | Cc1cc2c(Oc3ccc(S(C)(=O)=O)cc3)cc(C(=O)Nc3ccc(CO)cn3)cc2o1 [Example 266, N-(5-(Hydroxymethyl)pyridin-2-yl)-2-methyl-4-(4-(methylsulfonyl)-phenoxy)-benzofuran-6-carboxamide] | 
12 |  |  | CC(C)Oc1cc(C(=O)Nc2ccn(C)n2)cc2c1CC(COc1ccccc1)O2 (stereo not shown) [Example 214, 4-Isopropoxy-2-phenoxymethyl-2,3-dihydro-benzofuran-6-carboxylic acid (1-methyl-1H-pyrazol-3-yl)-amide] | 
47.3 | 6.48 | 46 | COCc1cc2c(Oc3ccc(S(C)(=O)=O)cc3)cc(C(=O)Nc3cc(OC)ccn3)cc2o1 [Example 314, 2-(Methoxymethyl)-N-(4-methoxypyridin-2-yl)-4-[4-(methylsulfonyl)phenoxy]-1-benzofuran-6-carboxamide] | 
8.4 |  |  | CC(C)Oc1cc(C(=O)Nc2ccn(C)n2)cc2c1CC(Cc1ccccc1)O2 (stereo not shown) [Example 221, 2-Benzyl-4-isopropoxy-2,3-dihydro-benzofuran-6-carboxylic acid (1-methyl-1H-pyrazol-3-yl)-amide] | 
84.5 | 5.37 | 147 | Cc1cc2cc(C(=O)Nc3ccn(C)n3)cc(Oc3ccc(S(C)(=O)=O)cc3)c2o1 [Example 338, 2-Methyl-N-(1-methyl-1H-pyrazol-3-yl)-7-[4-(methylsulfonyl)-phenoxy]-1-benzofuran-5-carboxamide] | 
66.1 | 5.43 | 66 | Cc1ccc(NC(=O)c2cc(Oc3ccc(S(C)(=O)=O)cc3)c3oc(C)nc3c2)nc1 [Example 369, 2-Methyl-N-(5-methylpyridin-2-yl)-7-[4-(methylsulfonyl)-phenoxy]-1,3-benzoxazole-5-carboxamide] | 
 | 7.08 |  | COCC1(C)Cc2c(Oc3ccc(S(=O)(=O)C4CC4)cc3)cc(C(=O)Nc3ccn(C)n3)cc2O1 (single isomer, unassigned; (-)) [Example 247, (−)-4-(4-Cyclopropanesulfonyl-phenoxy)-2-methoxymethyl-2-methyl-2,3-dihydro-benzofuran-6-carboxylic acid (1-methyl-1H-pyrazol-3-yl)-amide] | % Activation at 10 uM [1]: 252%; % Max Activation: 254%
125 | 5.77 | 162 | Cc1cc2cc(C(=O)Nc3ccn(C)n3)cc(Oc3ccc(S(C)(=O)=O)cc3)c2s1 [Example 330, 2-Methyl-N-(1-methyl-1H-pyrazol-3-yl)-7-[4-(methylsulfonyl)-phenoxy]-1-benzothiophene-5-carboxamide] | 
